From ChEMBL document CHEMBL1828625, “4-benzimidazolyl-3-phenylbutanoic acids as novel PIF-pocket-targeting allosteric inhibitors of protein kinase PKCζ” (J Med Chem, 2011) come the findings set out here.

The target in assay [1] is 3-phosphoinositide-dependent protein kinase 1 (Homo sapiens) (UniProt O15530). The experiment in a line: Activation of PDK1 at 50 uM.
For assay [2], the target named is T1, Protein kinase C iota type (Homo sapiens) (UniProt P41743).
T1 sequence (whole entry): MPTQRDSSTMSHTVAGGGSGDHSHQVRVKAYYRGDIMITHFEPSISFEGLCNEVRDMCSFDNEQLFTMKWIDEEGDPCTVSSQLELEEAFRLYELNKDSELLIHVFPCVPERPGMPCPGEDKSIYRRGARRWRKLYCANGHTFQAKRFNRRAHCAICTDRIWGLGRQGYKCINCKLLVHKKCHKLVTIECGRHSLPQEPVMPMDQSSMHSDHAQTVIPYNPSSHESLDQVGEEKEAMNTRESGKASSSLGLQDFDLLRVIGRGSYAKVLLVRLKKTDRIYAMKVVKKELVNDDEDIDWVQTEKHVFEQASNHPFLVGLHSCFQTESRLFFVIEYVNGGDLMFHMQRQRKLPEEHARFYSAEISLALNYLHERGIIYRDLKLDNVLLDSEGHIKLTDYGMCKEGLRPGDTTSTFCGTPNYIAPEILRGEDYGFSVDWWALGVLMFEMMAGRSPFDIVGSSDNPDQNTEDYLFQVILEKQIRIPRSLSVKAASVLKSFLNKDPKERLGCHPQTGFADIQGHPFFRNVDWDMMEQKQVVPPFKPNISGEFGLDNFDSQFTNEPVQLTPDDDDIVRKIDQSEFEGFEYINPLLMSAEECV
The assay can be described thus: Inhibition of PKCiota at 50 uM.

The target in assay [3] is T1, Protein kinase C iota type (Homo sapiens). The assay can be described thus: Inhibition of PKCiota at 200 uM.
The target of assay [4] is T2, Serine/threonine-protein kinase Sgk1 (Homo sapiens) (UniProt O00141).
T2 sequence (whole entry): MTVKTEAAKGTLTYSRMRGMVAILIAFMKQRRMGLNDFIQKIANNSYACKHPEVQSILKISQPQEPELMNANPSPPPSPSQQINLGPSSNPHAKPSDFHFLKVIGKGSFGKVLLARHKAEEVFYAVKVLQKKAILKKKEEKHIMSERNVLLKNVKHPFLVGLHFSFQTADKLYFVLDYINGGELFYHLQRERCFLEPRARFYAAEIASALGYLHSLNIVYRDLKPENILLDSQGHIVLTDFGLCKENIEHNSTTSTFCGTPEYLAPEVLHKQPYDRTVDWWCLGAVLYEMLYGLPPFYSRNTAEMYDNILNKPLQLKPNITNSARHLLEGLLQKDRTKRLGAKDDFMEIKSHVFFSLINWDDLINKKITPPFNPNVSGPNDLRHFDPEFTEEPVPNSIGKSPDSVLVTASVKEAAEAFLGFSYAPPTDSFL
The experiment in a line: Inhibition of SGK at 50 uM.

Assay [5] addresses Ribosomal protein S6 kinase beta-1 (Homo sapiens) (UniProt P23443). The experiment in a line: Inhibition of S6K1 at 50 uM.
Assay [6] is described as follows: Inhibition of PKA at 50 uM.
For assay [7], the target named is Serine/threonine-protein kinase N2 (Homo sapiens) (UniProt Q16513). The experiment in a line: Inhibition of PRK2 at 50 uM.
The target of assay [8] is RAC-alpha serine/threonine-protein kinase (Homo sapiens) (UniProt P31749). The experiment in a line: Inhibition of PKB-alpha at 50 uM.
In assay [9] the target is T3, Protein kinase C zeta type (Homo sapiens, UniProt Q05513).
T3 sequence (Q05513 whole entry): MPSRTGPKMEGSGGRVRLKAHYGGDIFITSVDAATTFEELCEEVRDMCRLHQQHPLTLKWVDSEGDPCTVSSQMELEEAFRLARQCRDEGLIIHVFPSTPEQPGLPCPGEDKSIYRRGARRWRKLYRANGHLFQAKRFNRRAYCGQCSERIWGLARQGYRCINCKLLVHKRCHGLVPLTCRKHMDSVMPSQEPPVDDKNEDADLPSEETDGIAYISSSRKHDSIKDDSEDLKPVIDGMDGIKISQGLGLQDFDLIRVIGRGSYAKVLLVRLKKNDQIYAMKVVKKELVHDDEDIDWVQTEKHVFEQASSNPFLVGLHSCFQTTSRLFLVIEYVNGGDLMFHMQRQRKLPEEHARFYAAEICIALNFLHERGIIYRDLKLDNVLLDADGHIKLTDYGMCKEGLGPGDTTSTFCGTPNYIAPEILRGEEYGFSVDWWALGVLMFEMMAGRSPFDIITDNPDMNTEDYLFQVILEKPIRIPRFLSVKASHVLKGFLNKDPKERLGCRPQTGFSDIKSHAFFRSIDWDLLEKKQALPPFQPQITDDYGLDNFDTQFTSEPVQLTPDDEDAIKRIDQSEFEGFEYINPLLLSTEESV
The experiment in a line: Inhibition of PKCzeta in human U937 cells assessed as inhibition of TNF-alpha-induced NF-kB activation by luciferase reporter gene assay. Format: cell-based, U-937. (Reporter assays use an easily measured gene product as a stand-in for the process of interest.)

Assay [10] deals with T3, Protein kinase C zeta type. The assay can be described thus: Inhibition of human PKCzeta assessed as [gamma32P]ATP utilization using myelin basic protein as substrate.

Active and inactive are the calls of the source. No cut-off for these calls is given here.

The inhibition is the drop in the measured response relative to a control, in per cent. What is called IC50 is the concentration at which inhibition is half-maximal.

Sequence of 3-phosphoinositide-dependent protein kinase 1 (Homo sapiens) (O15530 whole entry, looked up): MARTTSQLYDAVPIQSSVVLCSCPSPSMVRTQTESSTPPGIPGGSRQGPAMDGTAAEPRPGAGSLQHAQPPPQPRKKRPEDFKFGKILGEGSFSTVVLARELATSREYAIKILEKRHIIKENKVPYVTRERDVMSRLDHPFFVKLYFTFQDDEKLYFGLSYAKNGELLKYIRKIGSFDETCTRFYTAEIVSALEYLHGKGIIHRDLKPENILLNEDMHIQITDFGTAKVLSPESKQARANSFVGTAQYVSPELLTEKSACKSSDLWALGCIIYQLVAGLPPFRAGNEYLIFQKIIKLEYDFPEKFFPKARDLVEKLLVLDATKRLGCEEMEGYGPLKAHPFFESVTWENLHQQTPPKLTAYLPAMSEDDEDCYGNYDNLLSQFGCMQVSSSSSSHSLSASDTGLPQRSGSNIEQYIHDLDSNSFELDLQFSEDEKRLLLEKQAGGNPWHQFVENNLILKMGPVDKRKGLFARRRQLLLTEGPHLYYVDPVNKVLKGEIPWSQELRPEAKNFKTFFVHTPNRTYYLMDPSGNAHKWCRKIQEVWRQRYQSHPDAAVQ
Sequence of Ribosomal protein S6 kinase beta-1 (Homo sapiens) (P23443 whole entry, looked up): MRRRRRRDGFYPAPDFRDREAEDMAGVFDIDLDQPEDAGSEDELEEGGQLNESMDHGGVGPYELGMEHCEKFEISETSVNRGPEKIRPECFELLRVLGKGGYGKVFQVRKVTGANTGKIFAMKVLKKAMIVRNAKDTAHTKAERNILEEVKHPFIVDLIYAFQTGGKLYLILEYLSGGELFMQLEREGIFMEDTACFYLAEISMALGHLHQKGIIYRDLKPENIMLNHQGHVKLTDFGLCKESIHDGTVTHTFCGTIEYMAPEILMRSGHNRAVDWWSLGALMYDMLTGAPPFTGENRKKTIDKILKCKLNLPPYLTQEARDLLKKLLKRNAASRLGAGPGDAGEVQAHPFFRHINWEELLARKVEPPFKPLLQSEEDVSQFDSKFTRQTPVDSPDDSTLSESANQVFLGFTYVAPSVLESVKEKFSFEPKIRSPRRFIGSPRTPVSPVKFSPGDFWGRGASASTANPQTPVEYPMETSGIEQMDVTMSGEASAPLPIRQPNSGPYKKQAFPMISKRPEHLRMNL
Sequence of RAC-alpha serine/threonine-protein kinase (Homo sapiens) (P31749 whole entry): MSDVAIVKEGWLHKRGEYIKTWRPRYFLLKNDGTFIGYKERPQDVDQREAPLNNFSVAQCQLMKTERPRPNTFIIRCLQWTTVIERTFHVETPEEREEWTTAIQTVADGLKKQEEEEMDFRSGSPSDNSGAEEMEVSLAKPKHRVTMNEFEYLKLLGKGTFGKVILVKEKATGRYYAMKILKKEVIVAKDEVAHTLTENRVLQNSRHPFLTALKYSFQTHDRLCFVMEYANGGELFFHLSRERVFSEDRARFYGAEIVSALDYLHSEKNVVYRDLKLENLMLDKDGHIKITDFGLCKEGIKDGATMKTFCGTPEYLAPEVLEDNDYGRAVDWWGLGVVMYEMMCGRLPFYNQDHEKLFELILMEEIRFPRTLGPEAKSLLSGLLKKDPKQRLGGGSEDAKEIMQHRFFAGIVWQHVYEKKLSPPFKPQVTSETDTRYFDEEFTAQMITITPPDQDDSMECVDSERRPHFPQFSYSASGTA
Sequence of Serine/threonine-protein kinase N2 (Homo sapiens) (Q16513 whole entry, looked up): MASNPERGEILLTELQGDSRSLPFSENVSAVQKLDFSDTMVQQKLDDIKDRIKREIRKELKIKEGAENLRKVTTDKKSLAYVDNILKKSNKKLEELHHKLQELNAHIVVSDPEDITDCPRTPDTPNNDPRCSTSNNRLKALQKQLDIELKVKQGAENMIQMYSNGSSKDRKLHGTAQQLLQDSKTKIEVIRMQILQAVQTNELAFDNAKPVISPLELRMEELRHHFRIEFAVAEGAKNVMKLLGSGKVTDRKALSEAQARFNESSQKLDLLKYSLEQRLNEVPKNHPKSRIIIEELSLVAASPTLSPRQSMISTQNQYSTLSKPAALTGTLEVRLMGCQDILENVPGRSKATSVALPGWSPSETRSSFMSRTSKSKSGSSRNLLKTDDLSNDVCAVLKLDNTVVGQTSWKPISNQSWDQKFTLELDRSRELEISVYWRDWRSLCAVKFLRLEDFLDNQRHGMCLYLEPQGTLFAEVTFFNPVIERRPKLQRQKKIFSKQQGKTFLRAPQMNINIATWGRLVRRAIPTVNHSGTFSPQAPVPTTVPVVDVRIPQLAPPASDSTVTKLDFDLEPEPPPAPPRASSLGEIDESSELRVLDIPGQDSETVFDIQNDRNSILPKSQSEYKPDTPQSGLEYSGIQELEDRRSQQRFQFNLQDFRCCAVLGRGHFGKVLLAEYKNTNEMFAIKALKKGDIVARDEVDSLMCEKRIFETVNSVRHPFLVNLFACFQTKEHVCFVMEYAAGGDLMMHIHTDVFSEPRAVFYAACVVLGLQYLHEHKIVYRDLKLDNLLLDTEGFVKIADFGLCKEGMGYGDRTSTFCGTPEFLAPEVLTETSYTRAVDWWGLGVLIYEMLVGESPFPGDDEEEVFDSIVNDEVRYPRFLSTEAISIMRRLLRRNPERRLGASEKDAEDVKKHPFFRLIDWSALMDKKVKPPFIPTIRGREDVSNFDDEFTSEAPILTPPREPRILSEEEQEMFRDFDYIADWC

Regarding `O=C(O)CC(Cc1nc2cc(Cl)ccc2[nH]1)c1ccc(Cl)cc1Cl` (racemic), the fold change (FC) in assay [1] amounted to 3.
Take `CCCc1ccc(C(CC(=O)O)Cc2nc3cc(I)ccc3[nH]2)cc1` (racemic): the inhibition entry in assay [2] and in assay [3] was “inactive” each time. Moreover, the inhibition result in [4], in assay [6], in assay [7] and in [8] was “Active” throughout. This molecule gave an inhibition in [5] of 60%.
As to `CC(C)(C)c1ccc(C(CC(=O)O)Cc2nc3ccc(I)cc3[nH]2)cc1` (racemic), the IC50 in [9] worked out at 13 µM; in [10], 23 µM.
`O=C(O)CC(Cc1nc2cc(Cl)c(F)cc2[nH]1)c1ccc(Cl)cc1` (racemic) showed a fold change (FC) in [1] of 3.
In assay [5], `O=C(O)CC(Cc1nc2cc(-c3ccccc3)ccc2[nH]1)c1ccc(Cl)cc1` (racemic) had an inhibition of 60%.
On to `CC(C)(C)c1ccc(C(CC(=O)O)Cc2nc3cc(I)ccc3[nH]2)cc1` (racemic), for which, in assay [4], the inhibition came to 30%.
